The values that follow come from US8877741B2, “Pyrrolidine derivatives, pharmaceutical compositions and uses thereof” (Boehringer Ingelheim International GmbH, priority 2013, dated 2014).

Molecules are shown by their SMILES.

For orientation: IC50 means the concentration that inhibits the measured activity by half.

This experiment addresses human ACC2 (Homo sapiens (Human), UniProt O00763). Description: ACC2 assay, spectrophotometric 384 well assay (NADH-linked kinetic method). In kind it is biochemical. The note with it: human ACC2 construct lacking the 128 N-terminal amino acids; coupled lactate dehydrogenase/pyruvate kinase reaction, 340 nm, 25° C. The procedure, abridged:
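ADP formation was monitored as NADH consumption at 340 nm for 15 min at 25 °C, using baculovirus-expressed human ACC2 missing its first 128 amino acids, with 500 μM ATP and 2000 μM each of acetyl-CoA and NADH (final). IC50 was fitted by non-linear regression on low-control-subtracted slopes.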

human ACC2, sequence (O00763 129-2458): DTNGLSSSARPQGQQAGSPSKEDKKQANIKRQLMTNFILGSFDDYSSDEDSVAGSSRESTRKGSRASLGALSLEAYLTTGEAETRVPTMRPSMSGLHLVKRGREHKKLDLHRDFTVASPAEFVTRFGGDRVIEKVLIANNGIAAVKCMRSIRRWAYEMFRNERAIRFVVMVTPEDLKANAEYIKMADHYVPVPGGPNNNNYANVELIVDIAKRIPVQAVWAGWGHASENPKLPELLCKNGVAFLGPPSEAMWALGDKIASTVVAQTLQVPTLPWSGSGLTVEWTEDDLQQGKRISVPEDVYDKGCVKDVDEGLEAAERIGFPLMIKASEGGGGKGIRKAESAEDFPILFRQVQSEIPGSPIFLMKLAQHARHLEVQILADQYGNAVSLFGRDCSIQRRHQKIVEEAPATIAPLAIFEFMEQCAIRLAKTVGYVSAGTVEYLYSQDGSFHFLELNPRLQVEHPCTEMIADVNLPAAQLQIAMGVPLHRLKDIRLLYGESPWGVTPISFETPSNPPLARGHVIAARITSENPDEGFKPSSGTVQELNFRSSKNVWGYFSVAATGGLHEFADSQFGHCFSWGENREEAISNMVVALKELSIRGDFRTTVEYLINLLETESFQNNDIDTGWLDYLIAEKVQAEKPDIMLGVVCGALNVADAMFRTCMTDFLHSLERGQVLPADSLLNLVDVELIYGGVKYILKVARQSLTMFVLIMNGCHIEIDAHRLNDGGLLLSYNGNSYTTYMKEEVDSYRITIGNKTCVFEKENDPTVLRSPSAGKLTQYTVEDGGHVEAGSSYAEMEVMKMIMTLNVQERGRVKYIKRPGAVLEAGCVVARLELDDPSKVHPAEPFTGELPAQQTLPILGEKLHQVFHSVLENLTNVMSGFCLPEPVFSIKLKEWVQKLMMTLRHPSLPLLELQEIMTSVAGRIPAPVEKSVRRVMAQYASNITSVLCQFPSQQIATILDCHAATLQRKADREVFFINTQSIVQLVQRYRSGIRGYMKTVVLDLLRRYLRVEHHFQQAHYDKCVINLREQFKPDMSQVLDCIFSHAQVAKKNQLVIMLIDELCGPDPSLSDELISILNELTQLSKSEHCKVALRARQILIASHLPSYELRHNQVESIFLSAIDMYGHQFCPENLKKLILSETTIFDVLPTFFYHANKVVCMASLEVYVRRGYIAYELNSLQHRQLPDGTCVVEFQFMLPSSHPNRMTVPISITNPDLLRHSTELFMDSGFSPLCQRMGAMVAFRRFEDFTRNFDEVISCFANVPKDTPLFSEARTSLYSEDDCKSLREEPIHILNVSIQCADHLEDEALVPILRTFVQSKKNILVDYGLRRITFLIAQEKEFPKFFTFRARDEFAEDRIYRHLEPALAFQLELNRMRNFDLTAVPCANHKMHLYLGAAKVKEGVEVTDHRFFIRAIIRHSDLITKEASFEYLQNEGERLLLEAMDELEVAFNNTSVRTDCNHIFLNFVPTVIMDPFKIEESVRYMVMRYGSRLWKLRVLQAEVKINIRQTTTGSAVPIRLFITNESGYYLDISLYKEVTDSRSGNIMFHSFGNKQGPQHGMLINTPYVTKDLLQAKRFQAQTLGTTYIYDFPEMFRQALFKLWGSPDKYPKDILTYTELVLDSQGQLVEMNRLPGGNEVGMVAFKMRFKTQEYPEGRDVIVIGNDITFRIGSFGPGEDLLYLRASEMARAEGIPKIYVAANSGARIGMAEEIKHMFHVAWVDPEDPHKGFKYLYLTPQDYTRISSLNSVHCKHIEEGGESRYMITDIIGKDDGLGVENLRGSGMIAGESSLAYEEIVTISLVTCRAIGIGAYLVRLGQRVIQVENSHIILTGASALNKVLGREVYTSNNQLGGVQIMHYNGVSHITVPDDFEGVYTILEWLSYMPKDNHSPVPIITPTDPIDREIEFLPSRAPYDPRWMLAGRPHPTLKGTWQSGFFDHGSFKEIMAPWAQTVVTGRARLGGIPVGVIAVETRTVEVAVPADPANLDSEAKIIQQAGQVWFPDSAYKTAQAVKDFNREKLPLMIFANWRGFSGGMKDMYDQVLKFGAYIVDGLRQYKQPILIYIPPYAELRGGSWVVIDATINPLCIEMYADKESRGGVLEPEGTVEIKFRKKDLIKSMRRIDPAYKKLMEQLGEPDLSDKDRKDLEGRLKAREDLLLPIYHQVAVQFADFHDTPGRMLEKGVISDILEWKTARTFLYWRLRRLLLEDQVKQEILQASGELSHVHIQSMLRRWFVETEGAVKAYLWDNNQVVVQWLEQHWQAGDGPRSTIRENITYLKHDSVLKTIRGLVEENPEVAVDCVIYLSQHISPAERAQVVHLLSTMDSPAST

For the compound `CC(=O)NC1CCN(C(=O)N[C@@H](C)c2ccc(OC3CCN(c4ccc(OCC5CC5(F)F)cn4)C3)cc2)CC1` (stereo partly shown) [Example 3.11], half-maximal inhibition (IC50) required 314 nM. With `CC(=O)Nc1nc(C)c(C(=O)N[C@@H](C)c2ccc(O[C@@H]3CCN(c4ccc(OCC5CC5(F)F)cn4)C3)cc2)s1` (stereo partly drawn) [Example 2.1, 2-Acetamido-N—((1S)-1-(4-((3R)-1-(5-((2,2-difluorocyclopropyl)methoxy)pyridin-2-yl)pyrrolidin-3-yloxy)phenyl)ethyl)-4-methylthiazole-5-carboxamide] the figure was 25 nM; with `CC(=O)N[C@@H](C)c1ccc(O[C@@H]2CCN(c3cc(Cl)ncc3C)C2)cc1` [Example 8.2], 565 nM. `COC(=O)N[C@@H](C)c1ccc(OC2CCN(c3ccc(OCC4CC4(F)F)cn3)C2)cc1` (stereo partly shown) [Example 4.3]: 59 nM corresponded to half-maximal inhibition (IC50). With `CCN(CC)c1nccc(N2CC[C@@H](Oc3ccc([C@H](C)NC(C)=O)cc3)C2)c1F` [Example 10.19] the figure was 35 nM; with `CCCOc1cnc(N2CCC(Oc3ccc([C@H](C)NC(C)=O)cc3)C2)c(Cl)c1` (stereo partly shown) [Example 1.71], 88 nM; with `C[C@H](NC(=O)c1cn[nH]c1)c1ccc(OC2CCN(c3ccnc(OCC4CC4)c3)C2)cc1` (stereo partly shown) [Example 2.86], 63 nM.

Compound `C[C@H](NC(=O)C1(C)CC1)c1ccc(OC2CCN(c3cccc(C(F)(F)F)n3)C2)cc1` (stereo partly shown) [Example 2.40] displayed an IC50 of 139 nM.

`CC(=O)N[C@@H](C)c1ccc(O[C@@H]2CCN(c3ccnc(O[C@@H]4CCC[C@@H]4O)c3)C2)cc1` [Example 9.45] had an IC50 of 500 nM. To `C[C@H](NC(=O)c1cnn(C)c1Cl)c1ccc(OC2CCN(c3ccnc(OCC(F)F)c3)C2)cc1` (stereo partly shown) [Example 2.114] belongs 611 nM. To `CC(C)Oc1cc(N2CCC(Oc3ccc([C@H](C)NC(=O)c4cncs4)cc3)C2)ccn1` (stereo partly shown) [Example 2.24] belongs 199 nM; to `CCNc1nccc(N2CC[C@@H](Oc3ccc([C@H](C)NC(C)=O)cc3)C2)c1F` [Example 1.115], 260 nM; to `C[C@H](NC(=O)c1cncs1)c1ccc(O[C@@H]2CCN(c3ccnc(OCC4CC4)c3)C2)cc1` [Example 9.63], 55 nM. With `Cc1nc(N)sc1C(=O)N[C@@H](C)c1ccc(O[C@@H]2CCN(c3ccc(OCC4CC4(F)F)cn3)C2)cc1` (stereo partly drawn) [Example 13, 2-Amino-N—((1S)-1-(4-((3R)-1-(5-((2,2-difluorocyclopropyl)methoxy)pyridin-2-yl)pyrrolidin-3-yloxy)phenyl)ethyl)-4-methylthiazole-5-carboxamide] the figure was 240 nM; with `Cc1oncc1C(=O)N[C@@H](C)c1ccc(OC2CCN(c3ccnc(OC(C)C)c3)C2)cc1` (stereo partly shown) [Example 2.58], 69 nM. For the compound `CC(=O)N[C@@H](C)c1ccc(O[C@@H]2CCN(c3ccnc(OCC4CCCO4)c3)C2)cc1` (stereo partly shown) [Example 9.49], the IC50 was found to be 668 nM.
